Measured values from paper PMC11037862 (ACS chemical neuroscience, 2023).

Biological target: S1PR1 (sphingosine-1-phosphate receptor 1) (Homo sapiens, UniProt P21453)
Assay: saturation autoradiography with the tritiated ligand on human brain sections

S1PR1 (sphingosine-1-phosphate receptor 1), sequence (P21453 whole entry): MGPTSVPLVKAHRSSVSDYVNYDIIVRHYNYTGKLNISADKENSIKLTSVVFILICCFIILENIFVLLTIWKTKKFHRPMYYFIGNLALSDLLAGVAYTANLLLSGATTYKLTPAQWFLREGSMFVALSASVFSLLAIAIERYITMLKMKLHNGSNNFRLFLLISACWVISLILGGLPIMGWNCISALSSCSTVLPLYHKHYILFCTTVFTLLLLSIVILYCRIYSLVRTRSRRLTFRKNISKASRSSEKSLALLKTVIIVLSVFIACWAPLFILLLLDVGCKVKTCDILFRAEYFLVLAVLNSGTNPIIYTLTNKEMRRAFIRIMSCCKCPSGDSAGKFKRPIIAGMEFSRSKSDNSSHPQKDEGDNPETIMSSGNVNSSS

[^3H]CS1P1 showed a Kd of 2.7 ± 0.2 nM.
